Test results reported in ChEMBL document CHEMBL1811854, “Phenolic compounds from the roots of Jordanian viper's grass, Scorzonera judaica” (J Nat Prod, 2011).

tested on: HeLa; assay: Cytotoxicity against human HeLa cells by MTT assay; assay type: functional, cell-based

| SMILES | IC50 [µM] |
| --- | --- |
| O=C(Cc1cccc(O)c1C(=O)O)c1ccc(O)cc1 | > 100 |
| O=C1O/C(=C\c2ccc(O)c(O)c2)c2cccc(O[C@@H]3O[C@H](CO)[C@@H](O)[C@H](O)[C@H]3O)c21 | > 100 |
| O=C1OC(c2ccc(O)c(O)c2)=C/C1=C/c1ccc(O)c(O)c1 | > 100 |
| O=C1OC(c2ccc(O)c(O)c2)C/C1=C\c1ccc(O)c(O)c1 (configuration not stated) | > 100 |
| O=C(O)c1c(O)cccc1/C=C/c1ccc(O[C@@H]2O[C@H](CO)[C@@H](O)[C@H](O)[C@H]2O)cc1 | > 100 |
| COc1cc(C(=O)Cc2cccc(O)c2C(=O)O)cc(O)c1O | > 100 |
| O=C(Cc1cccc(O)c1C(=O)O)c1ccc(O)c(O)c1 | > 100 |
| COc1cc([C@H]2O[C@H](O[C@@H]3O[C@H](CO)[C@@H](O)[C@H](O)[C@H]3O)[C@H]3[C@H]2CO[C@H]3c2ccc(O)c(OC)c2)ccc1O | > 100 |
| C[C@@H]1O[C@@H](O[C@@H]2[C@@H](O)[C@H](Oc3ccc([C@@H]4Cc5cccc(O)c5C(=O)O4)cc3)O[C@H](CO)[C@H]2O)[C@H](O)[C@H](O)[C@H]1O | > 100 |

tested on: MCF7; assay: Cytotoxicity against human MCF7 cells by MTT assay; assay type: functional, cell-based

| SMILES | IC50 [µM] |
| --- | --- |
| O=C(Cc1cccc(O)c1C(=O)O)c1ccc(O)cc1 | > 100 |
| O=C1O/C(=C\c2ccc(O)c(O)c2)c2cccc(O[C@@H]3O[C@H](CO)[C@@H](O)[C@H](O)[C@H]3O)c21 | > 100 |
| O=C1OC(c2ccc(O)c(O)c2)=C/C1=C/c1ccc(O)c(O)c1 | > 100 |
| O=C1OC(c2ccc(O)c(O)c2)C/C1=C\c1ccc(O)c(O)c1 (configuration not stated) | > 100 |
| O=C(O)c1c(O)cccc1/C=C/c1ccc(O[C@@H]2O[C@H](CO)[C@@H](O)[C@H](O)[C@H]2O)cc1 | > 100 |
| COc1cc(C(=O)Cc2cccc(O)c2C(=O)O)cc(O)c1O | > 100 |
| O=C(Cc1cccc(O)c1C(=O)O)c1ccc(O)c(O)c1 | > 100 |
| COc1cc([C@H]2O[C@H](O[C@@H]3O[C@H](CO)[C@@H](O)[C@H](O)[C@H]3O)[C@H]3[C@H]2CO[C@H]3c2ccc(O)c(OC)c2)ccc1O | > 100 |
| C[C@@H]1O[C@@H](O[C@@H]2[C@@H](O)[C@H](Oc3ccc([C@@H]4Cc5cccc(O)c5C(=O)O4)cc3)O[C@H](CO)[C@H]2O)[C@H](O)[C@H](O)[C@H]1O | > 100 |

tested on: Jurkat; assay: Cytotoxicity against human Jurkat cells by MTT assay; assay type: functional, cell-based

| SMILES | IC50 [µM] |
| --- | --- |
| O=C(Cc1cccc(O)c1C(=O)O)c1ccc(O)cc1 | > 100 |
| O=C1O/C(=C\c2ccc(O)c(O)c2)c2cccc(O[C@@H]3O[C@H](CO)[C@@H](O)[C@H](O)[C@H]3O)c21 | > 100 |
| O=C1OC(c2ccc(O)c(O)c2)=C/C1=C/c1ccc(O)c(O)c1 | > 100 |
| O=C1OC(c2ccc(O)c(O)c2)C/C1=C\c1ccc(O)c(O)c1 (configuration not stated) | > 100 |
| O=C(O)c1c(O)cccc1/C=C/c1ccc(O[C@@H]2O[C@H](CO)[C@@H](O)[C@H](O)[C@H]2O)cc1 | > 100 |
| COc1cc(C(=O)Cc2cccc(O)c2C(=O)O)cc(O)c1O | > 100 |
| O=C(Cc1cccc(O)c1C(=O)O)c1ccc(O)c(O)c1 | > 100 |
| COc1cc([C@H]2O[C@H](O[C@@H]3O[C@H](CO)[C@@H](O)[C@H](O)[C@H]3O)[C@H]3[C@H]2CO[C@H]3c2ccc(O)c(OC)c2)ccc1O | > 100 |
| C[C@@H]1O[C@@H](O[C@@H]2[C@@H](O)[C@H](Oc3ccc([C@@H]4Cc5cccc(O)c5C(=O)O4)cc3)O[C@H](CO)[C@H]2O)[C@H](O)[C@H](O)[C@H]1O | > 100 |
